From ChEMBL document CHEMBL5537164, “Discovery of Potent, Orally Bioavailable, Tricyclic NLRP3 Inhibitors” (J Med Chem, 2024)

Columns and labels:
[1] = Oral bioavailability in Beagle dog at 1 mg/kg measured after 24 hrs by LC-MS/MS analysis; type: ADME, organism-based, Canis lupus familiaris; conditions: in vivo
[2] = Clearance in mouse liver microsomes; type: ADME, Microsome; conditions: read-out: CLH
[3] = Volume of distribution at steady state in Sprague-Dawley rat at 10 mg/kg, po or 1 mg/kg, iv measured after 24 hrs by LC-MS/MS analysis; type: ADME, organism-based; conditions: in vivo
[4] = Clearance in human liver microsomes; type: ADME, Microsome; conditions: read-out: CLH
[5] = Clearance in C57BL/6 mouse at 1 mg/kg, iv measured after 24 hrs by LC-MS/MS analysis; type: ADME, organism-based; conditions: in vivo
[6] = AUC (0 to infinity) in C57BL/6 mouse at 3 mg/kg, po measured after 24 hrs by LC-MS/MS analysis; type: ADME, organism-based; conditions: in vivo
[7] = Drug concentration in brain of C57BL/6 mouse model of acute peritonitis at 50 mg/kg, po preadministered with compound for 1 hrs followed by LPS stimulation for 2 hrs and measured 15 mins after ATP addition by HPLC-MS/MS analysis; type: ADME, organism-based; conditions: read-out: Ct
[8] = Protein binding in dog plasma; type: ADME, cell-free, Canis lupus familiaris; conditions: read-out: PPB (converted)
[9] = Drug concentration in blood of C57BL/6 mouse model of acute peritonitis at 100 mg/kg, po preadministered with compound for 1 hrs followed by LPS stimulation for 2 hrs and measured 15 mins after ATP addition by HPLC-MS/MS analysis; type: ADME, organism-based; conditions: whole blood, read-out: Ct
[10] = In vivo inhibition of NLRP3 in LPS/ATP-induced C57BL/6 mouse model of acute peritonitis assessed as reduction in IL-1beta level at 10 mg/kg, po preadministered with compound for 1 hrs followed by LPS stimulation for 2 hrs and measured 15 mins after ATP addition by ELISA relative to control; type: functional; conditions: time 3.25 hrs
[11] = Clearance in dog liver microsomes; type: ADME, Canis lupus familiaris, Microsome; conditions: read-out: CLH
[12] = Clearance in C57BL/6 mouse assessed as hepatic blood flow at 3 mg/kg, po or 1 mg/kg, iv measured after 24 hrs by LC-MS/MS analysis; type: ADME, organism-based, Liver; conditions: in vivo

- bioavailability [1]: 89%
- microsomal CLint [2]: 103 µL/min/mg
- Vdss [3]: 5.5 L/kg
- microsomal CLint [4]: 37 µL/min/mg
- clearance [5]: 58 mL/min/kg
- AUC(0-inf) [6]: 0.718 µM·h
- concentration at 3.25 h [7]: 398 nM
- fraction unbound [8]: 0.17
- concentration at 3.25 h [9]: 3670 nM
- microsomal CLint [11]: 39 µL/min/mg
- LBF [12]: 40%
SMILES: CN1CCC[C@@H](NC(=O)Cn2nc(C(C)(C)O)n3c(cc4sc(Cl)cc43)c2=O)C1
- inhibition in vivo at 10 mg/kg [10]: 45%
